This is an account of results in patent US9000025B2, “Autotaxin inhibitors and uses thereof” (Amira Pharmaceuticals, Inc., priority 2010, dated 2015).

Each structure is given as a SMILES string.

The target of the test is T1, autotaxin (ATX) (Homo sapiens, UniProt Q13822).
T1 construct: conditioned medium from the human melanoma cell line, MDA-MB-4355, which endogenously expresses autotaxin; host or cells: MDA-MB-435S human melanoma cells; serum-free conditioned medium, concentrated 20-fold
In words: Native Autotaxin Choline Release Assay. The class given is biochemical. The following applies: autotaxin in conditioned medium from human melanoma cell line; choline released from LPC; read-out: MDA-MB-435S Assay IC50. In a few lines: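 Native ATX from conditioned serum-free, phenol-red-free DMEM of confluent cells cultured 48 h; LPC as substrate. Released choline detected with choline oxidase/peroxidase/4-aminoantipyrine colour mix in 50 mM Tris pH 8, 10 min at 37 °C, absorbance 555 nm; choline quantified against standard curve, equated to LPA formed.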
In the case of `CCCn1cc(-n2c(C)c(Sc3cccc(CC(=O)O)c3F)c3ccc(Cl)c(F)c32)cn1` [Compound 4-12, {3-[6-Chloro-7-fluoro-2-methyl-1-(1-propyl-1H-pyrazol-4-yl)-1H-indol-3-ylsulfanyl]-2-fluoro-phenyl}-acetic acid], the IC50 was < 300 nM. With `CCCn1cc(-n2c(C)c(Sc3ccc(C)c(C(=O)O)c3)c3ccc(Cl)c(F)c32)cn1` [Compound 4-13, 5-[6-Chloro-1-(1-propyl-1H-pyrazol-4-yl)-7-fluoro-2-methyl-1H-indol-3-ylsulfanyl]-2-methyl-benzoic acid], the IC50 is < 300 nM. As to `CCCn1cc(-n2c(C)c(Sc3ccc(C(F)(F)F)c(CC(=O)O)c3)c3ccc(Cl)c(F)c32)cn1` [Compound 4-14, {5-[6-Chloro-7-fluoro-2-methyl-1-(1-propyl-1H-pyrazol-4-yl)-1H-indol-3-ylsulfanyl]-2-trifluoromethyl-phenyl}-acetic acid], the IC50 was < 300 nM.

Turning to `CCn1cc(-n2c(C)c(Sc3cccc(CC(=O)O)c3F)c3ccc(Cl)c(F)c32)cn1` [Compound 4-15, {3-[6-Chloro-1-(1-ethyl-1H-pyrazol-4-yl)-7-fluoro-2-methyl-1H-indol-3-ylsulfanyl]-2-fluoro-phenyl}-acetic acid], the IC50 is < 300 nM.

The term IC50 denotes the midpoint of a concentration-inhibition curve.
